“Also recorded” adds a separate entry of the source. Counter-ions that a name gives are not always drawn.
Key:
platelets [1] = conditions: cited from earlier work
[2] = cited from earlier work
Apoe^−/− mice = assay: Apoe−/− mice on WD gavage fed with TPI: liver fat accumulation and atherosclerotic lesions (Oil Red O); assay type: in vivo, mouse; conditions: gavage 60 μg/Kg/day, 4 weeks, vs saline
Text: As mentioned above, TYMP enhances platelet activation in vitro and promotes thrombosis in vivo, making TYMP a potential target for antithrombotic therapy. […] Age-matched Apoe^−/− mice on WD fed with saline were used as controls.

C57Bl6 wild type mice = assay: Western diet induced body weight gain; assay type: in vivo, mouse; conditions: gavage 1 mg/kg/day, western diet TD.88137, vs saline, hydrochloride
Text: To determine if inhibition of TYMP could attenuate or inhibit obesity in vivo, C57Bl6 wild type mice were fed with a western diet (TD.88137, 42% calories from fat), started from 6 to 8 […], to facilitate their weight gain. […] Mice received the same volume of saline feeding as a control. Body weight gain was monitored weekly, and data were presented as mean of the accumulated weight gain from each mice at each week. N=3 in the saline-feeding group, and 2 in the TPI-feeding group.

platelets [3] = assay: Cellix flow chamber-based platelet adhesion and aggregation assay; assay type: cell-based, mouse
Description: Cellix flow chamber-based platelet adhesion and aggregation assay. Cellix flow chambers were coated with collagen 10 μg/mL in PBS. Whole blood was drawn from mouse IVC using 0.109 M sodium citrate as an anticoagulant, stained with Rhodamine 6G, and then used for the flow chamber mediated adhesion and aggregation assay. Some of the whole blood was treated with or without TPI before it was perfused into the chamber.

platelets in PRP = assay: Mouse platelet aggregation assay (PRP); assay type: cell-based
Text: Mouse platelet aggregation assay. […] Platelet-rich plasma (PRP) was used for platelet aggregation assay. […] Same volume of vehicle (DMSO or saline)-treated platelets was used as controls.

AKT = assay: ADP-induced AKT phosphorylation in platelets (immunoblot); assay type: cell-based, mouse; conditions: 50 μM TPI, 2.5 μM ADP, especially the second phase
Description: Evaluation of platelet signaling activation. Platelets in PRP were stimulated with 2.5 μM ADP for 0, 1, 3, and 5 minutes, then lysed with radioimmunoprecipitation assay (RIPA) buffer containing proteinase/phosphatase inhibitor cocktail. The lysates were subsequently used for AKT activation immunoblotting assays. ADP-stimulated p-selectin expression was analyzed by flow cytometry.

WT mice [4] = assay: 7.5% FeCl3 induced carotid artery thrombosis model, drug given before injury; assay type: in vivo, mouse; conditions: for lowest effective dose with significant antithrombotic effect: gavage for one week; for lowest dose in inhibiting mouse thrombosis: in vivo
Description: (§1) Murine carotid artery thrombosis model and tail bleeding assay. Detailed ferric chloride (FeCl3) induced carotid artery thrombosis model has been described before. […] The endpoints were set as follows: 1) blood flow has ceased for >30 seconds; or 2) occlusion is not seen after 30 minutes of FeCl3 injury. […] In some experiments, a jugular vein catheter prepared with P-10 tubing was placed for drug administration after 5 minutes of thrombus initiation. Thrombus formation was continually monitored using the endpoints mentioned above. Tail bleeding assay was either conducted on mice immediately after the thrombosis study or on mice that were not used for the in vivo thrombosis study. […] Tail bleeding assay was conducted on these mice immediately after the thrombosis study.

WT mice [5] = conditions: mouse, in vivo; for mice considered to have bleeding side effects: male, 1 week
Description: as §1

[6] = tested on: WT mice fed a western diet; assay: FeCl3 thrombosis model under hyperlipidemia (western diet); assay type: in vivo, mouse; conditions: TPI 1 mg/kg for one week, WD 4 weeks
Text: Examination of the effect of TYMP inhibition on thrombosis under hyperlipidemia. WT mice were fed a western diet (WD, TD.88137) for a total of 4 weeks. […] These mice were then subjected to the thrombosis study using the 7.5% FeCl3 induced thrombosis model.

WT mice [7] = assay: FeCl3 thrombosis model, bolus injection via jugular vein catheter 5 minutes after thrombus initiation; assay type: in vivo, mouse
Description: Murine carotid artery thrombosis model and tail bleeding assay. Detailed ferric chloride (FeCl3) induced carotid artery thrombosis model has been described before. Vessel injury was induced by 7.5% FeCl3 solution to the carotid artery for 1 minute. […] The endpoints were set as follows: 1) blood flow has ceased for >30 seconds; or 2) occlusion is not seen after 30 minutes of FeCl3 injury. In this case, 30 minutes was assigned to that mouse for the statistical analysis. In some experiments, a jugular vein catheter prepared with P-10 tubing was placed for drug administration after 5 minutes of thrombus initiation. Thrombus formation was continually monitored using the endpoints mentioned above. Tail bleeding assay was either conducted on mice immediately after the thrombosis study or on mice that were not used for the in vivo thrombosis study.

TYMP and Lyn = target: T1, TYMP and Lyn (Homo sapiens, UniProt P19971); assay: Association of TYMP and Lyn (pull-down, Cos-7 cells); assay type: binding; conditions: TPI treatment
T1 construct: overexpressing full length human TYMP and Lyn in Cos-7 cells; expressed in transfected cells; host or cells: COS-7
T1 sequence (P19971 11-482): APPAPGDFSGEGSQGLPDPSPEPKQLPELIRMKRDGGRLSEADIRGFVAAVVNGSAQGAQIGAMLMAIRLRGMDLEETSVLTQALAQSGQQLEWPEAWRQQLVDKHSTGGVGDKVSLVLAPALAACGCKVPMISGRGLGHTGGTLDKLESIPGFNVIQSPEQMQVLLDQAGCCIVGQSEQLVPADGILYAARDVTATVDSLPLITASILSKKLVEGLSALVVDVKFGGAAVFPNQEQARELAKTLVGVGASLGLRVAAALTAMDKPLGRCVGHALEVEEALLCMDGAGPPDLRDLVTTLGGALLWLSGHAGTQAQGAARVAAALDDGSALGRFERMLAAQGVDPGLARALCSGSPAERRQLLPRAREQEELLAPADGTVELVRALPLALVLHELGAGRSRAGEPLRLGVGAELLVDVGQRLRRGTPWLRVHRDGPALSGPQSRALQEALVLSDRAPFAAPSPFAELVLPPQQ
Text: Generation of fusion proteins to determine that TYMP binds to LYN through the SH3 binding domain. Human SH3 domain nucleotides (hLynSH3, amino acids 63-123) were amplified by PCR and cloned into a mammalian expression vector pEBG (Addgene, plasmid #22227) with an N-terminal glutathione S-transferase (GST) affinity tag (pEBG-GST-hLynSH3). A pCDNA6B/his-hTYMP plasmid vector was previously constructed. pEBG-GST-hLynSH3 and pCDNA6B/his-hTYMP plasmids were co-transfected into COS-7 cells, lysed in a Pierce™ IP Lysis Buffer (ThermoFisher Scientific), and used for GST pull down assay. Eluates were used for Western blot assay to confirm the presence of TYMP.
pEGFP-N1-human Lyn-GFP and pCDNA6B/his-hTYMP plasmids were also co-transfected into the COS-7 cells. TYMP was pulled down using immobilized Ni-NTA on magnetic sepharose beads (GE Healthcare Life Sciences) for His-tagged protein purification. His-hTYMP eluates were used for western blot assay for Lyn.

[8] = as component of Lonsurf (TAS-102); no systemic bleeding observed; cited from earlier work
[9] = bolus 17 and 1 mg/kg TPI, 5 min after injury

Oc1ncnc2c1ncn2[C@@H]1O[C@H](COC(c2ccccc2)(c2ccccc2)c2ccccc2)[C@@H](O)[C@H]1O [KIN59, 5′-O-tritylinosine]
platelet activation in vitro (platelets [1]): dramatically inhibited
thrombosis in vivo [2]: dramatically inhibited

[H]/N=C1\CCCN1Cc1[nH]c(=O)[nH]c(=O)c1Cl [TPI, tipiracil hydrochloride]
atherosclerotic plaque areas formation in aortic root (Apoe^−/− mice): attenuated
lipid accumulation in livers (Apoe^−/− mice): attenuated
WD-induced body weight gain (C57Bl6 wild type mice): reduced; also recorded: decreases
platelet aggregation to the collagen-coated surface (platelets [3]; 50 μM TPI, WT whole blood, shear 65 dyn/cm^2, 3 minutes): significantly reduced
platelet adhesion to collagen (platelets [3]; TYMP inhibition, collagen-coated flow chamber): does not affect
ADP-induced aggregation of Tymp−/− platelets (platelets in PRP; 50 μM TPI, 2.5 μM ADP, Tymp−/− platelets): had no effect
ADP-induced WT platelet aggregation (platelets in PRP; 50 μM TPI, 2.5 μM ADP, WT platelets): attenuated
CRP-induced platelet aggregation (platelets in PRP; 50 μM TPI, 2 minutes pretreatment): completely blocked
collagen-induced platelet aggregation (platelets in PRP; WT platelets, different concentrations of TPI, collagen 1 μg/ml): dose-dependently inhibited
CRP-induced platelet shape change (platelets in PRP; dose-dependently at 250, 125 and 62.5 μM, 0.5 μg/ml CRP): inhibited
ADP-stimulated AKT phosphorylation (AKT): dramatically reduced
in vivo thrombosis (WT mice [4]; gavage 60 μg/kg/day for 3 days): significantly inhibited
occlusive thrombus formation in the carotid arteries (WT mice [4]; intraperitoneal 17 mg/kg once per day for three days): completely inhibited
thrombosis (WT mice [4]; intravenous injection 1.7 and 0.17 mg/kg, vs saline): significantly inhibited
effective dose (anti-thrombotic) (WT mice [4]; without significantly affecting hemostasis): ≤ 60 µg/kg/day
mice considered to have bleeding side effects (WT mice [5]): 28.5%
frequency of bleeding compared with clopidogrel-treated mice (WT mice [5]): significantly decreased
hyperlipidemia-enhanced thrombosis [6]: dramatically reduced
occlusive thrombus formation (WT mice [7]; TPI 50 μg/kg intravenous injection): did not inhibit
blood flow cessation (WT mice [7]; [9]): no blood flow cessation
thrombosis formation (time) (WT mice [7]; [9]): significantly prolonged
lowest effective dose on inhibiting the growth of the on-site thrombus (WT mice [7]; bolus 5 min after injury): 0.05 to 0.1 mg/kg
association of TYMP and Lyn (TYMP and Lyn): disrupted
systemic safety in clinical trials [8]: systemically safe

CC(=O)Oc1ccccc1C(=O)O [aspirin]
inhibiting thrombosis (WT mice [4]; gavage aspirin 0.5 mg/kg/day for 7 days): no effect
lowest effective dose with significant antithrombotic effect (WT mice [4]): 1 mg/kg/day
lowest dose in inhibiting mouse thrombosis (WT mice [4]): 1 mg/kg
mice considered to have bleeding side effects (WT mice [5]): 50%

COC(=O)[C@H](c1ccccc1Cl)N1CCc2sccc2C1 [clopidogrel]
lowest effective dose with significant antithrombotic effect (WT mice [4]): 2.5 mg/kg/day
lowest dose in inhibiting mouse thrombosis (WT mice [4]): 2.5 mg/kg
mice considered to have bleeding side effects (WT mice [5]): 75%

tPA: tissue plasminogen activator (Activase), FDA-approved clot-busting drug
lysis of established thrombi (WT mice [7]; bolus 1 mg/kg, 5 min after vascular injury): effectively lysed
lowest effective dose on thrombolysis (WT mice [7]; bolus 5 min after injury): 0.25 to 0.5 mg/kg
thrombolytic action (WT mice [7]; tPA 0.25 and 0.125 mg/kg): no thrombolytic action

From patent US12691115B2, “Methods for treatment of obesity, atherosclerosis, and thrombosis” (Marshall University Research Corporation, priority 2019, dated 2026)
